This note sets out measurements from paper PMC10895676, “Antiviral Activity of Lipophilic Nucleoside Tetraphosphate Compounds” (Journal of Medicinal Chemistry, 2024).

In general, CC50 refers to the concentration that lowers cell viability or growth by half.

A short description of data set [1]: Cytotoxicity, inhibition of CEM/TK– cell proliferation. In kind it is cell-based. Particulars: human, CEM/TK– cells (CD4+ T-cells), read-out: toxicity CC50.
A short description of data set [2]: Hydrolysis in citrate-stabilized human plasma. In kind it is in vitro ADME. Conditions: 37 °C, read-out: t1/2 in citrate-stabilized human plasma (converted). The protocol: Finally, the supernatant was divided into aliquots and frozen at −80 °C.
Two different samples, including 10 μL of water and 10 μL of 6.0 mM hydrolysis solution, were prepared in 2 mL Eppendorf vials. Next, 50 μL of human CEM cell extracts or 50 μL of human citrate plasma were added to the mixture, the reaction was started, and the mixture was incubated at 37 °C for different time periods. The reactions were stopped by the addition of 150 μL of MeOH. The resulting suspension was kept on ice for 5 min, followed by defrosting and centrifugation at 14,000 rpm (Heraeus, Biofuge Pico) for 22 min. The supernatants (80 or 60 μL) were directly injected into HPLC. The calculation of t1/2 was performed analogously to that for the chemical hydrolysis studies.

Regarding `CCCCCCCCCCCCCCCCCCP(=O)(OCCCC)OP(=O)(O)OP(=O)(O)OP(=O)(O)OC[C@@H]1C=C[C@H](n2cc(C)c(=O)[nH]c2=O)O1` (stereo partly shown) [5a, δ-(Alkyl-C4)-δ-C-(alkyl-C18)-d4T4P], the 50% cytotoxic concentration (CC50) in data set [1] came out at 49.8 µM. Further, the half-life at 0.86 mM in data set [2] was > 22 h.

Take `Cc1cn([C@H]2C=C[C@@H](COP(=O)(O)OP(=O)(O)OP(=O)(O)OP(=O)(O)O)O2)c(=O)[nH]c1=O` [d4T4P, 2′,3′-didehydro-2′,3′-dideoxythymidine-5′-tetraphosphate]: the CC50 in data set [1] is > 100 µM.

For the molecule `CCCCCCCCCCCCCCCCCCOP(=O)(OCCCC)OP(=O)(O)OP(=O)(O)OP(=O)(O)OC[C@@H]1C=C[C@H](n2cc(C)c(=O)[nH]c2=O)O1` (stereo partly shown) [4d, δ-(Alkyl-C4; alkyl-C18)-d4T4P], the CC50 in data set [1] turned out to be 46.8 µM.

As to `CCCCCCCCCCCCCCCCCCOP(=O)(O)OP(=O)(O)OP(=O)(O)OP(=O)(O)OC[C@@H]1C=C[C@H](n2cc(C)c(=O)[nH]c2=O)O1` [compound 20, δ-(Alkyl-C18)-d4T4P], in data set [1], the CC50 was > 100 µM.

`CCCCCCCCCCCCCCCCCCP(=O)(O)OP(=O)(O)OP(=O)(O)OP(=O)(O)OC[C@@H]1C=C[C@H](n2cc(C)c(=O)[nH]c2=O)O1` [compound 24, δ-C-(Alkyl-C18)-d4T4P]: the CC50 in data set [1] is 40.1 µM. In data set [2], the half-life at 0.86 mM was > 22 h.
